Experimental data from patent publication US20260097133A1, “EPIGENETIC EDITING TOOL FOR TARGETING HEPATITIS B VIRUS GENE” (priority 2023, published 2026).

What was measured:
Type in all cases: cell-based
Conditions in all cases: sgRNA in GFP-negative cell population, day 14 after transfection of EPIREG
[1] = tested on: type D HBV surface antigen (HBsAg) reporter cell line; assay: sgRNA lentiviral library screening, HBsAg reporter cell line (NGS reads in GFP-negative cells)
Text: (§1) In this example, the type D HBV X protein (HBx), core antigen (HBcAg), and surface antigen (HBsAg) reporter cell lines were used for library screening. First, a sgRNA cell library of type D HBV gene was constructed using a reporter cell line according to the method described in example 1. The sgRNA library was packaged into lentivirus to obtain a sgRNA lentiviral library (carrying red fluorescence), the reporter cell line was infected with the lentiviral library, and the red fluorescence was sorted to obtain the sgRNA cell library. Each cell in this sorted cell library integrated a single sgRNA in the library while the cell itself carried a reporter sequence (carrying green fluorescence). The EPIREG tool described in example 2 (the amino acid sequence of the tool was SEQ ID NO: 1194) (carrying blue fluorescence) was transfected and delivered into a cell library carrying both sgRNA and reporter sequences. Red/green/blue fluorescent triple-positive cells were sorted using a flow cytometer and cultured long-term. The EPIREG transfected into the cells could work together with the sgRNA to silence GFP in the reporter. On the day 14 after transfection, the GFP-negative cell population in the cell library was sorted, the genomic DNA of the negative cell population was extracted for NGS sequencing. The sgRNAs with higher sequencing reads in the negative cell population were compared using the untreated cell library as a control reference, so as to obtain the candidate sgRNAs that could play an editing role corresponding to each reporter, respectively (the schematic diagram of this screening scheme is shown in FIG. 6, and the analysis method is referenced to the literature DOI: 10.1186/s13059-014-0554-4). The functionally validated sgRNAs for each reporter cell line are summarized in the following table (arranged by the starting position of the target sequence of each sgRNA).

[2] = tested on: type D HBV core antigen (HBcAg) reporter cell line; assay: sgRNA lentiviral library screening, HBcAg reporter cell line (NGS reads in GFP-negative cells)
Text: as §1

[3] = tested on: type D HBV X protein (HBx) reporter cell line; assay: sgRNA lentiviral library screening, HBx reporter cell line (NGS reads in GFP-negative cells)
Text: as §1

Substance | Log2 FC [1] | Log2 FC [2] | Log2 FC [3]
27 (guide AACAAGAGATGATTAGGCAG; listed as DNA, chemistry not fully specified) [compound 27] | 1.3821 |  | 
39 (guide AACCCCCACTGGCTGGGGCT; listed as DNA, chemistry not fully specified) [compound 39] |  | 3.4538 | 
70 (guide ACAAGAGTTGCCTGAACTTT; listed as DNA, chemistry not fully specified) [compound 70] |  | 2.5329 | 
74 (guide ACAATGCTCAGGAGACTCTA; listed as DNA, chemistry not fully specified) [compound 74] |  | 2.1202 | 
81 (guide ACACGGTCCGGCAGATGAGA; listed as DNA, chemistry not fully specified) [compound 81] |  | 2.0776 | 
112 (guide ACCTTTGGATAAAACCTAGC; listed as DNA, chemistry not fully specified) [compound 112] | 1.203 |  | 
113 (guide ACGATGTATATTTGCGGGAG; listed as DNA, chemistry not fully specified) [compound 113] |  | 2.0632 | 
120 (guide ACTACTAGGTCTCTAGATGC; chemistry not given here) [compound 120] |  | 2.9841 | 
121 (guide ACTACTGTTGTTAGACGACG; listed as DNA, chemistry not fully specified) [compound 121] | 1.0553 |  | 
139 (guide AGACACCAAATACTCTATAA; listed as DNA, chemistry not fully specified) [compound 139] |  | 2.8391 | 
197 (guide AGGTCTGGAGCAAACATTAT; chemistry not given here) [compound 197] |  |  | 3.6817
200 (guide AGGTGCGCCCCGTGGTCGGT; listed as DNA, chemistry not fully specified) [compound 200] |  |  | 7.535
204 (guide AGGTTCCACGCACGCGCTGA; listed as DNA, chemistry not fully specified) [compound 204] |  |  | 3.0712
225 (guide ATACCGCCTCAGCTCTGTAT; listed as DNA, chemistry not fully specified) [compound 225] |  | 3.966 | 
249 (guide ATGACCAAGCCCCAGCCAGT; listed as DNA, chemistry not fully specified) [compound 249] |  | 2.8648 | 5.9752
254 (guide ATGGATACGATGTATATTTG; listed as DNA, chemistry not fully specified) [compound 254] |  |  | 3.4564
257 (guide ATGGGCCATCAGCGCGTGCG; listed as DNA, chemistry not fully specified) [compound 257] |  |  | 6.5564
305 (guide CACAGAAAGGCCTTGTAAGT; listed as DNA, chemistry not fully specified) [compound 305] |  | 2.1583 | 4.9316
327 (guide CACTGGCTGGGGCTTGGTCA; listed as DNA, chemistry not fully specified) [compound 327] |  | 1.8664 | 5.8386
335 (guide CAGATGAGAAGGCACAGACG; listed as DNA, chemistry not fully specified) [compound 335] |  |  | 4.44
357 (guide CATGACCAAGCCCCAGCCAG; listed as DNA, chemistry not fully specified) [compound 357] |  | 3.1523 | 6.2753
427 (guide CCGCAGGATTCAGCGCCGAC; listed as DNA, chemistry not fully specified) [compound 427] |  | 3.4136 | 
450 (guide CCTGCGGACGACCCTTCTCG; listed as DNA, chemistry not fully specified) [compound 450] |  |  | 4.242
451 (guide CCTGCTGCGAGCAAAACAAG; listed as DNA, chemistry not fully specified) [compound 451] |  | 2.9406 | 5.3958
484 (guide CGCCGACGGGACGTAAACAA; listed as DNA, chemistry not fully specified) [compound 484] |  |  | 3.3079

Substance | Log2 FC [1] | Log2 FC [2] | Log2 FC [3]
496 (guide CGGCTAGGAGTTCCGCAGTA; listed as DNA, chemistry not fully specified) [compound 496] |  | 2.9031 | 7.3529
498 (guide CGGGGAGTCCGCGTAAAGAG; listed as DNA, chemistry not fully specified) [compound 498] |  |  | 2.939
539 (guide CTGACGCAACCCCCACTGGC; listed as DNA, chemistry not fully specified) [compound 539] |  |  | 3.1536
553 (guide CTGGCCGTTGCCGGGCAACG; listed as DNA, chemistry not fully specified) [compound 553] |  | 2.4462 | 3.9905
560 (guide CTGTGCCTTGGGTGGCTTTG; listed as DNA, chemistry not fully specified) [compound 560] |  | 2.7695 | 
591 (guide GAAGCGAAGTGCACACGGTC; listed as DNA, chemistry not fully specified) [compound 591] |  | 4.4134 | 5.7107
612 (guide GACGCAACCCCCACTGGCTG; listed as DNA, chemistry not fully specified) [compound 612] |  | 2.8035 | 6.7125
628 (guide GAGGTGAAGCGAAGTGCACA; listed as DNA, chemistry not fully specified) [compound 628] |  | 3.2225 | 
650 (guide GATTGAATACATGCATACAA; listed as DNA, chemistry not fully specified) [compound 650] |  |  | 3.726
657 (guide GCAAACACTTGGCACAGACC; listed as DNA, chemistry not fully specified) [compound 657] |  | 1.9192 | 3.2226
735 (guide GGCACAGACCTGGCCGTTGC; listed as DNA, chemistry not fully specified) [compound 735] |  |  | 4.08
750 (guide GGCTTCCCGATACAGAGCTG; listed as DNA, chemistry not fully specified) [compound 750] |  | 4.6799 | 
762 (guide GGGCAACGGGGTAAAGGTTC; listed as DNA, chemistry not fully specified) [compound 762] |  |  | 4.8522
788 (guide GGGTTGCGTCAGCAAACACT; listed as DNA, chemistry not fully specified) [compound 788] |  |  | 4.4031
841 (guide GTGAAAAAGTTGCATGGTGC; listed as DNA, chemistry not fully specified) [compound 841] |  | 2.0112 | 
872 (guide TAAAGACTGGGAGGAGTTGG; listed as DNA, chemistry not fully specified) [compound 872] |  | 3.0933 | 
958 (guide TCCTGCGGACGACCCTTCTC; listed as DNA, chemistry not fully specified) [compound 958] |  | 3.1878 | 3.9999
981 (guide TCTAGAAGATCTCGTACTGA; listed as DNA, chemistry not fully specified) [compound 981] |  | 2.1673 | 
1006 (guide TGACCAAGCCCCAGCCAGTG; listed as DNA, chemistry not fully specified) [compound 1006] |  | 4.2194 | 7.0191
1008 (guide TGACGCAACCCCCACTGGCT; listed as DNA, chemistry not fully specified) [compound 1008] |  | 1.8835 | 4.9717
1033 (guide TGCGAGCAAAACAAGCGGCT; listed as DNA, chemistry not fully specified) [compound 1033] |  |  | 3.1795
1065 (guide TGGTCGGTCGGAACGGCAGA; listed as DNA, chemistry not fully specified) [compound 1065] |  | 2.8985 | 6.0793
1068 (guide TGGTGAGGTGAACAATGCTC; listed as DNA, chemistry not fully specified) [compound 1068] |  | 2.5736 | 
1104 (guide TTCCCGATACAGAGCTGAGG; listed as DNA, chemistry not fully specified) [compound 1104] |  | 3.9205 | 
1132 (guide TTTACCCCGTTGCCCGGCAA; listed as DNA, chemistry not fully specified) [compound 1132] |  | 2.1043 | 4.252
